We go through three compounds from patent US8840899B2, “Use of mTOR inhibitors to enhance T cell immune responses” (priority 2008, dated 2014).

“Also recorded” adds a separate entry of the source. Read-outs that look alike come from different tables or passages of the source.

In data set [1] the test system is vaccinia virus-specific CD8^+ T cells. Also noted: species or system Rhesus macaques (Macaca mulatta). As to conditions: rhesus monkey, in vivo.
Data set [2] has as its system virus-specific memory CD4^+ T cells. Also noted: species or system mice. As to conditions: mouse, in vivo.
Data set [3] concerns DbGP33 tetramer-positive CD8^+ T cells. Description: rAd5-LCMV-GP vaccination with low dose rapamycin. The class given is in vivo, mice. As for the experimental part:
Mice were vaccinated with rAd5-LCMV-GP (1×10^10 viral particles) by intramuscular injection on Day 0 and either left untreated or treated with rapamycin at a dose of 0.075 mg/kg from Day −1 to Day 34 (FIG. 19A). The number of DbGP33 tetramer-positive CD8^+ T cells in the spleen of treated and untreated mice was determined by FACS on Day 35 post-vaccination. […] The phenotype of virus-specific CD8^+ T cells was also evaluated by FACS (FIG. 19C).

Data set [4] has as its system LCMV-specific CD8^+ T cells (P14 cells). Also noted: species or system mice. Particulars: mouse, in vivo.
For data set [5], the system named is P14 memory cells. The class given is in vivo, mice.
The test system of data set [6] is virus-specific CD8^+ T cells. On the set-up: species or system mice. Particulars: mouse, in vivo.
Data set [7] deals with FKBP12 RNAi retrovirus transduced P14 cells. On the set-up: species or system mice. Particulars: mouse, in vivo.
Data set [8] concerns GP33 epitope-specific memory CD8^+ T cells (P14 cells). As to the kind of experiment: Rapamycin during T cell maintenance phase, adoptively transferred CFSE-labeled memory P14 cells. The class given is in vivo, mice.
The subject of data set [9] is P14 cells. Format: in vivo, mice.
Data set [10] deals with vaccinia virus (VV) that expresses the GP33 epitope (VVgp33). Also noted: species or system mice. Particulars: mouse, in vivo.
The test system of data set [11] is P14 memory T cells. Format: in vivo. Particulars: VVGP33 challenge, vs memory cells of untreated mice.
The conditions of data set [12]: mice.
The test system of data set [13] is virus-specific CD8^+ T cells. On the set-up: species or system mice. Particulars: mouse, in vivo. This is another data set of the same source.
Data set [14] concerns LCMV. On the set-up: species or system mice. Particulars: mouse, in vivo.
For data set [15] the following is noted: rhesus macaques, approximately 10-50 μg/kg/day intramuscularly.
Data set [16] relates to virus-specific CD8^+ T cells. Also noted: species or system mice. Particulars: mouse, in vivo. The source holds these as a separate data set.
Data set [17] has as its system CD62L^low effector CD8^+ T cells (P14 cells). Format: in vivo, mice.
For data set [18], the system named is antigen-specific CD8^+ T cells. On the set-up: species or system mice. Particulars: mouse, in vivo.
Data set [19] relates to virus-specific CD8^+ T cells. On the set-up: species or system mice. Particulars: mouse, in vivo. The source holds these as a separate data set.
Data set [20] deals with DbGP33 tetramer-positive P14 cells. Format: in vivo, mice.
In data set [21] the test system is GP33 epitope-specific CD8^+ T cells. Format: in vivo, mice.
Data set [22] relates to FKBP12. Format: cell-based, mice. Particulars: GFP^+ P14 cells, Day 7 or 8 post-infection.
The subject of data set [23] is LCMV-specific P14 transgenic CD8^+ T cells. On the set-up: species or system mice. Particulars: mouse, in vivo.
Data set [24] has as its system raptor. Format: cell-based, mice. As to conditions: GFP^+ P14 cells, Day 7 or 8 post-infection.
Setting [25] is: Day 31 post-infection, spleen, relative to control.

`CO[C@H]1C[C@@H]2CC[C@@H](C)[C@@](O)(O2)C(=O)C(=O)N2CCCC[C@H]2C(=O)O[C@H]([C@H](C)C[C@@H]2CC[C@@H](O)[C@H](OC)C2)CC(=O)[C@H](C)/C=C(\C)[C@@H](O)[C@@H](OC)C(=O)[C@H](C)C[C@H](C)/C=C/C=C/C=C/1C` [rapamycin, (3S,6R,7E,9R,10R,12R,14S,15E,17E,19E,21S,23S,26R,27R,34aS)-9,10,12,13,14,21,22,23,24,25,26,27,32,33,34,34a-hexadecahydro-9,27-dihydroxy-3-[(1R)-2-[(1S,3R,4R)-4-hydroxy-3-methoxycyclohexyl]-1-methylethyl]-10,21-dimethoxy-6,8,12,14,20,26-hexamethyl-23,27-epoxy-3H-pyrido[2,1-c][1,4]-oxaazacyclohentriacontine-1,5,11,28,29(4H,6H,31H)-pentone]: in data set [1], the T cell contraction entry was “slower” and the “number of memory CD8^+ T cells maintained” value is reported as “higher number”. Moreover, in [2], the “number of IFN-γ^+ CD4^+ T cells upon GP61 peptide stimulation” value is listed as “higher number of IFN-γ^+ cells”. In data set [3] (0.075 mg/kg Day -1 to Day 34, Day 35 post-vaccination), the “number of virus-specific (DbGP33 tetramer-positive) CD8^+ T cells in spleen” value was “significantly increased”. In addition, in data set [3] (0.075 mg/kg Day -1 to Day 34, spleen Day 35), the “phenotype of virus-specific CD8^+ T cells” value is on record as “markers of high quality memory T cells (CD127^High, CD62L^High, KLRG-1^Low, Bcl-2^High)”. For the same compound, in data set [4], the “expression of CD127 and CD62L on LCMV-specific CD8^+ T cells” value was “enhanced expression”; the “percentage of virus-specific CD8^+ T cells in PBMCs” value was “greater”; the recall responses is listed as “enhanced”. Also, the “percentage of P14 memory cells that divided more than twice in spleen” value in data set [5] (30 days post-transfer, control 36.8%) was 46.1%. Besides, in data set [5] (memory cells from rapamycin-treated mice (Example 1), up to 30 days post-transfer), the “percentage of divided memory T cells in PBMC” value is on record as “increased”. Besides, the “homeostatic proliferation of memory CD8^+ T cells generated with rapamycin” value in [5] (rapamycin Day -1 to Day 33, 30 days post transfer, vs memory cells of untreated mice) is on record as “superior”. Moreover, in data set [6], the “LCMV-specific CD8^+ T cell response” value was “enhanced”; the “contraction of the T cell response” value is on record as “minimal contraction”; the “expression of CD127, CD62L, and Bcl-2 on memory CD8^+ T cells” value is “higher levels”; the “frequency of KLRG-1^Low memory CD8^+ T cells” value is “higher frequency”. Further, in data set [6], the “number of GP33 epitope-specific CD8^+ T cells in PBMCs” value is “higher number”; the “number of epitope-specific CD8^+ T cells (GP33, GP276, NP396, NP205, GP118) in spleen” value was “enhanced the number”; the “numbers of antigen-specific CD8^+ T cells in lymphoid and non-lymphoid tissues” value is recorded as “Increased numbers”; the “phenotype of virus-specific CD8^+ T cells” value is “CD127^High CD62L^High KLRG-1^Low Bcl-2^High phenotype”. In data set [7], the “effect of rapamycin treatment on phenotype / memory differentiation of FKBP12 knockdown P14 cells” value is given as “diminished; also recorded: almost disappeared” and the “expression of memory markers (CD127, CD62L, Bcl2) on FKBP12 knockdown P14 cells under rapamycin” value is reported as “did not show increased expression”. Also, in data set [8] (0.6 mg/kg daily from Day -1, Day 42 post-transfer, vs untreated), the “number of virus-specific CD8^+ T cells in the spleen” value is “decreased”. The “percentage of virus-specific CD8^+ T cells that divided more than twice (CFSE)” value in data set [8] (0.6 mg/kg daily, Day 42 post-transfer, untreated 42.5%) is 17.8%. Moreover, the “number of virus-specific CD8^+ T cells (P14) in spleen” value in [9] (0.6 mg/kg daily from Day 8 after VV infection, Day 31, vs control) was “similar”. In addition, in data set [9] (setting [25]), the “expression of CD27 and Bcl-2 on virus-specific CD8^+ T cells” value is reported as “higher”; the “expression of KLRG-1 on virus-specific CD8^+ T cells” value was “lower”. For the same compound, in [9] (Day 31 post-infection, spleen, vs control), the “CD127 and CD62L expression on virus-specific CD8^+ T cells” value is given as “no significant difference”. Also, in data set [10], the “protective immunity (viral control)” value was “better” and the “viral titer in the ovaries” value was “reduction in viral titer”. Also, the “recall responses of memory CD8^+ T cells generated with rapamycin” value in [11] was “superior”. Moreover, the blood concentration in data set [12] (0.6 mg/kg (600 μg/kg) intraperitoneally daily) is 40 to 100 ng/mL. The same compound registered a blood concentration in data set [12] (low dose 0.075 mg/kg (75 μg/kg) daily) of 5 to 20 ng/mL. Moreover, in data set [13], the “Bcl-2 expression in Day 8 effector CD8^+ T cells” value is “higher levels”, the “death of effector CD8^+ T cells during contraction phase” value is recorded as “only minimal death”, the “phenotype of memory CD8^+ T cells” value is reported as “similar” and the “proportion of CD127^High KLRG-1^Low cells among Day 8 effector CD8^+ T cells” value is “higher proportion”. Besides, the “LCMV titer relative to untreated mice” value in data set [14] was “significantly increased”. Also, in data set [15], the “Blood levels of rapamycin” value is 5 to 15 ng/mL. Moreover, in [16], the “Bcl-2 expression of virus-specific CD8^+ T cells in lymph node” value is listed as “higher than control”, the “cell surface markers of virus-specific CD8^+ T cells in lymph node” value is on record as “no significant change”, the “number of memory cells generated” value was “not affected” and the “number of virus-specific CD8^+ T cells in the spleen” value is on record as “did not reduce”. For the same compound, in data set [16], the “number of virus-specific CD8^+ T cells with phenotype of highly functional memory cells” value was “significantly higher number”; the “phenotype of GP33, GP276 and NP396 epitope-specific CD8^+ T cells in spleen” value was “high quality memory T cells (CD127^High, CD62L^High, KLRG-1^Low, CD27^High, Bcl-2^High)”. Besides, the “CD62L re-expression on transferred virus-specific CD8^+ T cells” value in data set [17] (0.6 mg/kg daily after transfer, blood/PBMC, vs control mice) was “quickly re-expressed CD62L; also recorded: re-expressed CD62L much faster”. The “absolute number of CD62L^High virus-specific CD8^+ T cells in spleen” value in [17] (0.6 mg/kg daily, Day 26 post-transfer, vs untreated) is recorded as “greater”. In addition, in [17] (effector to memory transition phase after transfer), the “cell division during CD62L re-expression (CFSE)” value is given as “no or minimal cell division; also recorded: no cell division”. For the same compound, the “incorporation of BrdU by antigen-specific CD8^+ T cells” value in [18] is “minimal incorporation”. Further, the “percentage of virus-specific CD8^+ T cells (DbGP33 tetramer) in PBMCs” value in data set [19] was determined as 2.49%. Also, the “absolute number of DbGP33 tetramer-positive P14 cells in spleen” value in [20] (Day 5 post-challenge, vs untreated) is listed as “greater”. The “recall responses of memory CD8^+ T cells differentiated with rapamycin” value in data set [20] (rapamycin 25 days, VVGP33 challenge Day 28 post-transfer) is given as “better”. Further, the “percentage of DbGP33 tetramer-positive P14 cells in the spleen” value in [20] (rapamycin for 25 days, VVgp33 challenge Day 28, Day 5 post-challenge, untreated 1.69%) is on record as 4.93%. For the same compound, the “phenotype of antigen-specific CD8^+ T cells from spleen” value in data set [21] (34 days post-immunization) was “markers of high quality memory T cells (CD127^High, CD62L^High, KLRG-1^Low, Bcl-2^High)”. Further, the “memory T cell numbers relative to control” value in [21] (165 days after stopping the drug treatment) came out at 10 fold. Further, the “number of antigen-specific CD8^+ T cells maintained” value in [21] (PBMC and spleen (Day 34), vs control) is on record as “higher number”. In addition, the “expansion of GP33 epitope-specific CD8^+ T cells after VLP immunization” value in [21] (low dose rapamycin from Day -1, PBMC, vs control) is “expanded similarly”. Further, the “magnitude and quality of VLP-induced memory CD8^+ T cells” value in data set [21] (mouse, in vivo) was “enhanced both the magnitude and the quality”.

Turning to “FKBP12 shRNA (guide GCCAAACTGATAATCTCCTCA)”, the “Expression of FKBP12 protein” value in data set [22] was “significantly reduced”.

“raptor shRNA (guide GCCCGAGTCTGTGAATGTAAT)”: in data set [23], the “expression of phenotypic markers on antigen-specific T cells” value is recorded as “identical to what was observed upon knockdown of mTOR” and the “virus-specific memory T cell phenotype in spleen” value is “high quality memory T cell phenotype (CD127^High, CD62L^high KLRG-1^Low)”. In addition, the “Expression of raptor protein” value in data set [24] was “significantly reduced”.
